Each compound was assayed against Voltage-dependent N-type calcium channel subunit alpha-1B (Homo sapiens, UniProt Q00975) (assay: Inhibition of N-type calcium channel in IMR-32 human neuroblastoma cells).
Chain of Voltage-dependent N-type calcium channel subunit alpha-1B (Q00975 whole entry): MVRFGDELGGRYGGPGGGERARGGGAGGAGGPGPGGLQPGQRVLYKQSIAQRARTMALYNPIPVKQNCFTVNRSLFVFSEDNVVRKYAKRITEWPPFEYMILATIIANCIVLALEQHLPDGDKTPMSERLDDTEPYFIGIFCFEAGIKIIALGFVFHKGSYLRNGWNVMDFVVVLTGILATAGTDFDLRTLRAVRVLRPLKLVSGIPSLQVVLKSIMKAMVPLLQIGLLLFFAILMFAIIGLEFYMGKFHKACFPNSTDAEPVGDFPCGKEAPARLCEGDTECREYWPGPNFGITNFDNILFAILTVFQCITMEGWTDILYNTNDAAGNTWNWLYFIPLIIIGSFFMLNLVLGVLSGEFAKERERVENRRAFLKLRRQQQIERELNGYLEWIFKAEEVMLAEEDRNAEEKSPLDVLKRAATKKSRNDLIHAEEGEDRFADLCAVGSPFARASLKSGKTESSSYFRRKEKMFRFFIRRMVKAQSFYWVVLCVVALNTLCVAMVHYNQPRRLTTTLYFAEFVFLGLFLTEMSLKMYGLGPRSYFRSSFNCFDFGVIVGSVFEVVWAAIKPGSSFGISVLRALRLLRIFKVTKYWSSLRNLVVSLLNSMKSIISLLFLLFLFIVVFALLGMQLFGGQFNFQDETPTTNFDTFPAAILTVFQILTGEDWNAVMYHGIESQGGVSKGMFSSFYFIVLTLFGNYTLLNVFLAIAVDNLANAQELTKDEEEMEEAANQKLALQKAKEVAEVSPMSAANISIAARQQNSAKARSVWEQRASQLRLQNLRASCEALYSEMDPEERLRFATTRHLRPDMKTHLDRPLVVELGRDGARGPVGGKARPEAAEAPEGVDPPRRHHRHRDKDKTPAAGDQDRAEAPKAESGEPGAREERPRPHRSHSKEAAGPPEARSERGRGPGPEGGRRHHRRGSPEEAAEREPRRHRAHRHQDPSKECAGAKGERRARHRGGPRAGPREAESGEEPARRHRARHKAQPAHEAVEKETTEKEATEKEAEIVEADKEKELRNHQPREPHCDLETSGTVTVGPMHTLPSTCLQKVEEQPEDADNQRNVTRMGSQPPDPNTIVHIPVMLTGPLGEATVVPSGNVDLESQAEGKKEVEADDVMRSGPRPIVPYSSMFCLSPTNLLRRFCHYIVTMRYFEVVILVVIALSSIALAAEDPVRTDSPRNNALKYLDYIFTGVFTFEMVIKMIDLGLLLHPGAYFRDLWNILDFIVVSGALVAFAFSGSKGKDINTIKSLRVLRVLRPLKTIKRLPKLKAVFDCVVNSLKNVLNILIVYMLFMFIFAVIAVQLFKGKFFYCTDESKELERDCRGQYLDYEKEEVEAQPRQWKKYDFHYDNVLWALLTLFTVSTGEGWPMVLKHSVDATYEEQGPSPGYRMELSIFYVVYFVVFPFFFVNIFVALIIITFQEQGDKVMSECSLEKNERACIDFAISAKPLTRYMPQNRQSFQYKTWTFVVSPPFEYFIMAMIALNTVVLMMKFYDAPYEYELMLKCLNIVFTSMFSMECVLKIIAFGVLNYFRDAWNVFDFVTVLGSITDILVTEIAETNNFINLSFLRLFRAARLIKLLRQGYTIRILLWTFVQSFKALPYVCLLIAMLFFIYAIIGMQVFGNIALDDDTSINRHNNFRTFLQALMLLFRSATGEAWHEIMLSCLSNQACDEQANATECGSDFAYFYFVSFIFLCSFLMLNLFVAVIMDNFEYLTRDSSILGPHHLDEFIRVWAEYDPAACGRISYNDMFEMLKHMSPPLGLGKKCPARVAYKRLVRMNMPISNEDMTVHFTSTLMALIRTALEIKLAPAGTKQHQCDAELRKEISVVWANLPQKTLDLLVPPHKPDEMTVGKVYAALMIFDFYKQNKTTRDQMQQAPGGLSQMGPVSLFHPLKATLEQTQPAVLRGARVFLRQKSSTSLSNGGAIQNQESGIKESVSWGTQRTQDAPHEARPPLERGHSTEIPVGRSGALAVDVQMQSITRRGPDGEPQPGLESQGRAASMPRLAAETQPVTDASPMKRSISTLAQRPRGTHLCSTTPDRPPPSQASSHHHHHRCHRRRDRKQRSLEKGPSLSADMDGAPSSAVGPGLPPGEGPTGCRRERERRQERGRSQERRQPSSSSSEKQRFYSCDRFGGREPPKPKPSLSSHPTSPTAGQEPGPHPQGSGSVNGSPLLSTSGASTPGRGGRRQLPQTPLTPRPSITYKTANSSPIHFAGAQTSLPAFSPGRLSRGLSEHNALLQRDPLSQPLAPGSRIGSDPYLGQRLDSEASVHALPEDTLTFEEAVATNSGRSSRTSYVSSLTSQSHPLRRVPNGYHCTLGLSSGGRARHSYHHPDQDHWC
Type: cell-based
Compound `Oc1c(CN2CCCCCC2)ccc2c1CCN(CCCCCC(c1ccccc1)c1ccccc1)C2` has an IC50 of 1.1 µM. In the case of `Oc1c(CN2CCCCCC2)ccc2c1CCN(CCCCC=C(c1ccccc1)c1ccccc1)C2`, the IC50 is reported as 2.5 µM. `Oc1c(CN2CCCCC2)cc(Cc2cc(CN3CCCCC3)c(O)c3ncccc23)c2ccncc12` showed an IC50 of 4.4 µM. Work on `COc1ccc(CCCCN2CCc3c(ccc(CN4CCCCCC4)c3O)C2)cc1` yielded an IC50 of 10 µM. `Oc1c(CN2CCCCCC2)ccc2c1CCN(CCCC(c1ccccc1)c1ccccc1)C2` gave an IC50 of 0.46 µM. In the case of `Oc1c(CN2CCCCCC2)ccc2cnccc12`, the IC50 is reported as 35 µM. Work on `Oc1c(CN2CCCCCC2)ccc2c1CCN(CCCCc1ccccc1)C2` yielded an IC50 of 15 µM. In the case of `CN1CCc2c(ccc(CN3CCCCCC3)c2O)C1`, the IC50 is reported as > 100 µM. `Oc1c(CN2CCCCCC2)ccc2c1CCN(CCC(c1ccccc1)c1ccccc1)C2` was tested, and the IC50 was 7.4 µM. With `Oc1c(CN2CCCCCC2)ccc2c1CCN(CCCCc1ccc(F)cc1)C2` the IC50 was 5.1 µM. For `Oc1c(CN2CCCCCC2)ccc2c1CCN(CCCCC(c1ccccc1)c1ccccc1)C2`, the IC50 was 4.8 µM.

— ChEMBL document CHEMBL1130950, “Synthesis and structure-activity relationship of substituted 1,2,3,4-tetrahydroisoquinolines as N-type calcium channel blockers” (Bioorg Med Chem Lett, 1998)
